Drawing on patent publication US20240208992A1, “MACROCYCLES AS CFTR MODULATORS” (Idorsia Pharmaceuticals Ltd, priority 2021, published 2024), this text covers EC50 and Emax for 15 molecules.

This experiment concerns the target human F508del-CFTR (Homo sapiens, UniProt P13569, DEL508-508). In words: F508del-CFTR cell surface expression (corrector activity), DiscoveRx ß-galactosidase complementation chemiluminescence assay in recombinant U2OS cell line.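 As to all read-outs here: U2OS cells co-expressing ProLink-tagged F508del-CFTR and a membrane-anchored enzyme acceptor, where more surface CFTR restores β-galactosidase activity measured by chemiluminescence.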 The following applies: U2OS cell line, 16h compound incubation; for EC50: EC50, F508del-CFTR cell surface expression, geomean values; for Emax: U2OS, in relation to the Emax of the corrector lumacaftor (=100%), arithmetic mean values.

Each structure is given as a SMILES string.

human F508del-CFTR, sequence (P13569 with tags, fused parts or gaps DEL508-508): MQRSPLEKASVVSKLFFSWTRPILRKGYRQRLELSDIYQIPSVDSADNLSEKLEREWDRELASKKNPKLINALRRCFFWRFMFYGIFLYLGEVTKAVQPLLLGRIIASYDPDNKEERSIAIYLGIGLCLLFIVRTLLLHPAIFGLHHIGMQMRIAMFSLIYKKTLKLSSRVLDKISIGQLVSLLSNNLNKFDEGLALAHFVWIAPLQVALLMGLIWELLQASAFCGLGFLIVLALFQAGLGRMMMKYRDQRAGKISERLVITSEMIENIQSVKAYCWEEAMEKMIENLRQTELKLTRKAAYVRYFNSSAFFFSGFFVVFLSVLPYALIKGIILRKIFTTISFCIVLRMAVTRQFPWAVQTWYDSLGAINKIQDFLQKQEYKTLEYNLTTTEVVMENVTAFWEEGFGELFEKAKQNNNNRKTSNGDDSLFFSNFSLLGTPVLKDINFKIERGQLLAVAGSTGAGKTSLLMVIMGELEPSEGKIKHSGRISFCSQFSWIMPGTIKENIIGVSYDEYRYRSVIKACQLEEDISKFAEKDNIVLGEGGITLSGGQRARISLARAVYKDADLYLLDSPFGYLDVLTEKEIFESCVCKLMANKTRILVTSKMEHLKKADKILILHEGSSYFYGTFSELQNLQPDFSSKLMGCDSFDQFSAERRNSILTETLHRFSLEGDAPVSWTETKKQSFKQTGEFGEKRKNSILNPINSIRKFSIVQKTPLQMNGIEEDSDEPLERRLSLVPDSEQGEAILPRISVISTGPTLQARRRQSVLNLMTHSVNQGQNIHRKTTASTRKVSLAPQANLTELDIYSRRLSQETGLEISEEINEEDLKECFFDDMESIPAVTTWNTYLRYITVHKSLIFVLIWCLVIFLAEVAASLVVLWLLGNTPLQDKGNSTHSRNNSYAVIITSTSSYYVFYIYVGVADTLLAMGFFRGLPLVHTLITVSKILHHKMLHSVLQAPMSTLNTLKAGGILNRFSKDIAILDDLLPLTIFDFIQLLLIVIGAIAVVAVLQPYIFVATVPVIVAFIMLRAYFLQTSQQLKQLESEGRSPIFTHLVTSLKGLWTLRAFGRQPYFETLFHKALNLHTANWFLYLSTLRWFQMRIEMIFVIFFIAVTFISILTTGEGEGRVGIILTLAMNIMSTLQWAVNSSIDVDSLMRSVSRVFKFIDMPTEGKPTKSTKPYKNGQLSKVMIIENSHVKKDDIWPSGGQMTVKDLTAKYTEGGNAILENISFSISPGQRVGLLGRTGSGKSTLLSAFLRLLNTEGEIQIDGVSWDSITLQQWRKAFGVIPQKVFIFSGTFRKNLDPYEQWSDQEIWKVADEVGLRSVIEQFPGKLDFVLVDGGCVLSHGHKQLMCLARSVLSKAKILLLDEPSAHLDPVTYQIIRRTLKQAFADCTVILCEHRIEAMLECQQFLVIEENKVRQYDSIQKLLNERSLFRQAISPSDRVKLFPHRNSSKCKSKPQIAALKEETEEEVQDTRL

The term EC50 denotes the midpoint of the concentration-response curve. By Emax is commonly meant the size of the effect at its maximum, as opposed to the concentration needed. Take `COc1cccc2c1C(=O)N[C@H](C(=O)NCCc1cnccn1)CC(=O)N(C)[C@@H](CC(C)C)C(=O)N(CCC1CCCCC1)CC(=O)N[C@H](Cc1ccccc1)CO2` [Example 18, (3R,9S,13S)-3-benzyl-7-(2-cyclohexylethyl)-9-isobutyl-16-methoxy-10-methyl-5,8,11,15-tetraoxo-N-(2-(pyrazin-2-yl)ethyl)-2,3,4,5,6,7,8,9,10,11,12,13,14,15-tetradecahydrobenzo[p][1]oxa[4,7,10,14]tetraazacycloheptadecine-13-carboxamide]: the EC50 is 0.388 µM and the Emax was found to be 117%.
For `COc1cccc2c1C(=O)N[C@H](C(=O)NCCc1ccncn1)CC(=O)N(C)[C@@H](CC(C)C)C(=O)N(CCC1CCCCC1)CC(=O)N[C@H](Cc1ccccc1)CO2` [Example 19, (3R,9S,13S)-3-benzyl-7-(2-cyclohexylethyl)-9-isobutyl-16-methoxy-10-methyl-5,8,11,15-tetraoxo-N-(2-(pyrimidin-4-yl)ethyl)-2,3,4,5,6,7,8,9,10,11,12,13,14,15-tetradecahydrobenzo[p][1]oxa[4,7,10,14]tetraazacycloheptadecine-13-carboxamide], the EC50 was 0.743 µM and the Emax amounted to 125%.
Regarding `COc1cccc2c1C(=O)N[C@H](C(=O)NCCc1cncnc1)CC(=O)N(C)[C@@H](CC(C)C)C(=O)N(CCC1CCCCC1)CC(=O)N[C@H](Cc1ccccc1)CO2` [Example 20, (3R,9S,13S)-3-benzyl-7-(2-cyclohexylethyl)-9-isobutyl-16-methoxy-10-methyl-5,8,11,15-tetraoxo-N-(2-(pyrimidin-5-yl)ethyl)-2,3,4,5,6,7,8,9,10,11,12,13,14,15-tetradecahydrobenzo[p][1]oxa[4,7,10,14]tetraazacycloheptadecine-13-carboxamide], the EC50 was found to be 0.721 µM and the Emax was found to be 102%.
On the same counts, the results for `COc1cccc2c1C(=O)N[C@H](C(=O)NCCCOC(F)F)CC(=O)N(C)[C@@H](CC(C)C)C(=O)N(CCC1CCCCC1)CC(=O)N[C@H](Cc1ccccc1)CO2` [Example 21, (3R,9S,13S)-3-benzyl-7-(2-cyclohexylethyl)-N-(3-(difluoromethoxy)propyl)-9-isobutyl-16-methoxy-10-methyl-5,8,11,15-tetraoxo-2,3,4,5,6,7,8,9,10,11,12,13,14,15-tetradecahydrobenzo[p][1]oxa[4,7,10,14]tetraazacycloheptadecine-13-carboxamide] are 0.35 µM and 108%.
In the case of `COCCOCCNC(=O)[C@@H]1CC(=O)N(C)[C@@H](CC(C)C)C(=O)N(CCC2CCCCC2)CC(=O)N[C@H](Cc2ccccc2)COc2cccc(OC)c2C(=O)N1` [Example 22, (3R,9S,13S)-3-benzyl-7-(2-cyclohexylethyl)-9-isobutyl-16-methoxy-N-(2-(2-methoxyethoxy)ethyl)-10-methyl-5,8,11,15-tetraoxo-2,3,4,5,6,7,8,9,10,11,12,13,14,15-tetradecahydrobenzo[p][1]oxa[4,7,10,14]tetraazacycloheptadecine-13-carboxamide], the EC50 was 0.6 µM and the Emax was 104%.
`CC(C)C[C@H]1C(=O)N2CCCC[C@@H]2C(=O)N[C@H](Cc2ccccc2)COc2ccc3ncn(C)c3c2C(=O)N[C@H](C(=O)NCCc2nc3c(s2)CCC3)CC(=O)N1C` [Example 29, (8S,12S,18aR,21R)-21-benzyl-N-(2-(5,6-dihydro-4H-cyclopenta[d]thiazol-2-yl)ethyl)-12-isobutyl-5,11-dimethyl-6,10,13,19-tetraoxo-6,7,8,9,10,11,12,13,16,17,18,18a,19,20,21,22-hexadecahydro-5H,15H-imidazo[4′,5′:5,6]benzo[1,2-p]pyrido[2,1-f][1]oxa[4,7,10,14]tetraazacycloheptadecine-8-carboxamide]: the EC50 worked out at 0.439 µM and the Emax came out at 140%.
With `CC(C)C[C@H]1C(=O)N2CCCC[C@@H]2C(=O)N[C@H](Cc2ccccc2)COc2ccc3ncn(C)c3c2C(=O)N[C@H](C(=O)NCCc2noc3ccccc23)CC(=O)N1C` [Example 30, (8S,12S,18aR,21R)-N-(2-(benzo[d]isoxazol-3-yl)ethyl)-21-benzyl-12-isobutyl-5,11-dimethyl-6,10,13,19-tetraoxo-6,7,8,9,10,11,12,13,16,17,18,18a,19,20,21,22-hexadecahydro-5H,15H-imidazo[4′,5′:5,6]benzo[1,2-p]pyrido[2,1-f][1]oxa[4,7,10,14]tetraazacycloheptadecine-8-carboxamide], the EC50 stood at 0.275 µM and the Emax stood at 113%.
Take `CC(C)C[C@H]1C(=O)N2CCCC[C@@H]2C(=O)N[C@H](Cc2ccccc2)COc2ccc3ncn(C)c3c2C(=O)N[C@H](C(=O)NCCc2ccc(-n3nccn3)cc2)CC(=O)N1C` [Example 31, (8S,12S,18aR,21R)-N-(4-(2H-1,2,3-triazol-2-yl)phenethyl)-21-benzyl-12-isobutyl-5,11-dimethyl-6,10,13,19-tetraoxo-6,7,8,9,10,11,12,13,16,17,18,18a,19,20,21,22-hexadecahydro-5H,15H-imidazo[4′,5′:5,6]benzo[1,2-p]pyrido[2,1-f][1]oxa[4,7,10,14]tetraazacycloheptadecine-8-carboxamide]: the EC50 was 0.463 µM and the maximum response (Emax) came to 111%.
Consider `COc1cccc2c1OC[C@@H](NC(=O)[C@@H]1CC(=O)N(C)[C@@H](CC(C)C)C(=O)N3CCOC[C@@H]3C(=O)N[C@H](Cc3ccccc3)COc3ccc4ccccc4c3C(=O)N1)C2` [Example 32, (4aR,7R,18S,22S)-7-benzyl-22-isobutyl-N-(-8-methoxychroman-3-yl)-21-methyl-5,16,20,23-tetraoxo-1,2,4,4a,5,6,7,8,16,17,18,19,20,21,22,23-hexadecahydronaphtho[1,2-p][1,4]oxazino[3,4-f][1]oxa[4,7,10,14]tetraazacycloheptadecine-18-carboxamide], for which the EC50 is 0.318 µM and the Emax stood at 146%.
For `COc1cccc(OCCNC(=O)[C@@H]2CC(=O)N(C)[C@@H](CC(C)C)C(=O)N3CCOC[C@@H]3C(=O)N[C@H](Cc3ccccc3)COc3ccc4ccccc4c3C(=O)N2)c1` [Example 33, (4aR,7R,18S,22S)-7-benzyl-22-isobutyl-N-(2-(3-methoxyphenoxy)ethyl)-21-methyl-5,16,20,23-tetraoxo-1,2,4,4a,5,6,7,8,16,17,18,19,20,21,22,23-hexadecahydronaphtho[1,2-p][1,4]oxazino[3,4-f][1]oxa[4,7,10,14]tetraazacycloheptadecine-18-carboxamide], the EC50 is 0.255 µM and the Emax is 141%.
Turning to `COc1ccc(OCCNC(=O)[C@@H]2CC(=O)N(C)[C@@H](CC(C)C)C(=O)N3CCOC[C@@H]3C(=O)N[C@H](Cc3ccccc3)COc3ccc4ccccc4c3C(=O)N2)cc1` [Example 34, (4aR,7R,18S,22S)-7-benzyl-22-isobutyl-N-(2-(4-methoxyphenoxy)ethyl)-21-methyl-5,16,20,23-tetraoxo-1,2,4,4a,5,6,7,8,16,17,18,19,20,21,22,23-hexadecahydronaphtho[1,2-p][1,4]oxazino[3,4-f][1]oxa[4,7,10,14]tetraazacycloheptadecine-18-carboxamide], the EC50 was 0.26 µM and the Emax came to 121%.
The corresponding values for `COc1cc2c(cc1CCNC(=O)[C@@H]1CC(=O)N(C)[C@@H](CC(C)C)C(=O)N3CCOC[C@@H]3C(=O)N[C@H](Cc3ccccc3)COc3ccc4ccccc4c3C(=O)N1)OCCO2` [Example 35, (4aR,7R,18S,22S)-7-benzyl-22-isobutyl-N-(2-(7-methoxy-2,3-dihydrobenzo[b][1,4]dioxin-6-yl)ethyl)-21-methyl-5,16,20,23-tetraoxo-1,2,4,4a,5,6,7,8,16,17,18,19,20,21,22,23-hexadecahydronaphtho[1,2-p][1,4]oxazino[3,4-f][1]oxa[4,7,10,14]tetraazacycloheptadecine-18-carboxamide] are 0.262 µM and 109%.
Turning to `Cc1c(CCNC(=O)[C@@H]2CC(=O)N(C)[C@@H](CC(C)C)C(=O)N3CCOC[C@@H]3C(=O)N[C@H](Cc3ccccc3)COc3ccc4ccccc4c3C(=O)N2)c(Cl)cc2c1OCCO2` [Example 36, (4aR,7R,18S,22S)-7-benzyl-N-(2-(7-chloro-5-methyl-2,3-dihydrobenzo[b][1,4]dioxin-6-yl)ethyl)-22-isobutyl-21-methyl-5,16,20,23-tetraoxo-1,2,4,4a,5,6,7,8,16,17,18,19,20,21,22,23-hexadecahydronaphtho[1,2-p][1,4]oxazino[3,4-f][1]oxa[4,7,10,14]tetraazacycloheptadecine-18-carboxamide], the EC50 is 0.306 µM and the Emax amounted to 120%.
As for `CC(C)C[C@H]1C(=O)N2CCOC[C@@H]2C(=O)N[C@H](Cc2ccccc2)COc2ccc3ccccc3c2C(=O)N[C@H](C(=O)NCCc2cc3c(cc2Cl)OCCO3)CC(=O)N1C` [Example 37, (4aR,7R,18S,22S)-7-benzyl-N-(2-(7-chloro-2,3-dihydrobenzo[b][1,4]dioxin-6-yl)ethyl)-22-isobutyl-21-methyl-5,16,20,23-tetraoxo-1,2,4,4a,5,6,7,8,16,17,18,19,20,21,22,23-hexadecahydronaphtho[1,2-p][1,4]oxazino[3,4-f][1]oxa[4,7,10,14]tetraazacycloheptadecine-18-carboxamide], the EC50 came to 0.122 µM and the Emax amounted to 205%.
On to `CC(C)C[C@H]1C(=O)N2CCOC[C@@H]2C(=O)N[C@H](Cc2ccccc2)COc2ccc3ccccc3c2C(=O)N[C@H](C(=O)NCCc2noc3ccccc23)CC(=O)N1C` [Example 38, (4aR,7R,18S,22S)-N-(2-(benzo[d]isoxazol-3-yl)ethyl)-7-benzyl-22-isobutyl-21-methyl-5,16,20,23-tetraoxo-1,2,4,4a,5,6,7,8,16,17,18,19,20,21,22,23-hexadecahydronaphtho[1,2-p][1,4]oxazino[3,4-f][1]oxa[4,7,10,14]tetraazacycloheptadecine-18-carboxamide], for which the 50% effective concentration (EC50) amounted to 0.299 µM and the Emax was 191%.
